Reference: patent publication US20250003952A1, “SENOLYTIC DRUG SCREENING METHOD AND SENOLYTIC DRUG” (KYOTO UNIVERSITY, priority 2021, published 2025)

How the values were obtained:
Chk1 kinase [1] = experiment: S280 phosphorylation of Chk1 kinase by Western blot in H1299 cells; assay type: cell-based; conditions: 10 μM for 48 hours
Experimental: When each inhibitor (U126 and BI-D1870) was administered to cancer cells, PGAM-Chk1 kinase binding was inhibited, and glycolytic metabolism decreased (Mikawa et al., 2020). RSK kinase was already known to directly control the phosphorylation of the S280 residue of Chk1 kinase (Li et al., 2012, Mol Biol Cell 23, 1582-1592). […] Specifically, cancer cell line H1299 cells were treated with the MEK kinase inhibitor (U126) at a concentration of 10 μM for 48 hours. The treated cells were collected, and proteins were extracted and then Western blotted. It was confirmed that the S280 phosphorylation of Chk1 kinase was suppressed although the protein level of Chk1 kinase was not changed. In addition, the present inventors prepared S280A mutants of Chk1 kinase. […] Specifically, PGAM and Chk1 kinase genes tagged with Nano-Bit tags were introduced into IMR90 cells to prepare a cell line capable of stable expression. At this time, three types of Chk1, i.e., wild-type Chk1 and S280A mutant Chk1 or S280D mutant Chk1, were each introduced into the cells. An oncogenic mutated Ras gene was introduced into these cells by retroviral infection to acquire stress senescent cells. The obtained senescent cells were used to measure intracellular luciferase luminescence signals by Nano-Bit for each.

PGAM-Chk1 kinase binding = conditions: cancer cells; Mikawa et al., 2020; cited from earlier work
mice models = conditions: Chang et al., 2016, Childs et al.; cited from earlier work
IMR90 cells = experiment: Senolysis / cell death of young and Ras-induced senescent IMR90 cells; assay type: cell-based, human
Source text: Ras gene with oncogenic mutation was introduced into young cells (within 1 month of continuous culture) of IMR90 cells by retroviral infection to acquire senescent cells. […] The control received only DMSO treatment. Representative images of cells observed under a microscope are shown (FIG. 11).
An oncogenic mutated Ras gene was introduced into young cells (within 1 month of continuous culture) of IMR90 cells by retroviral infection to acquire stress-induced senescent cells. The young cells and the senescent cells were both treated with different concentrations of the RSK kinase inhibitor BI-D1870 for 96 hours to evaluate cell death.
An oncogenic mutated Ras gene was introduced into young cells (within 1 month of continuous culture) of IMR90 cells by retroviral infection to acquire stress-induced senescent cells. The young cells and the senescent cells of IMR90 were both transfected with an RSK1 siRNA (two types of siRNA #1 (SEQ ID NO: 7) or #2 (SEQ ID NO: 8) having different target sequences) or a control to knock down RSK1. Representative images of cells observed under a microscope are shown (upper diagram in FIG. 20).
An oncogenic Ras was introduced into young cells (within 1 month of continuous culture) of IMR90 cells to induce senescent cells (OIS). The young cells and the senescent cells of IMR90 were transfected with two HIF-2α-specific siRNAs (SEQ ID NO: 9 and SEQ ID NO: 10) having different target sequences to knock down HIF-2α.
An oncogenic Ras was introduced into young cells (within 1 month of continuous culture) of IMR90 cells to induce senescent cells (OIS). The young cells and the senescent cells of IMR90 were transfected with a BIM-specific siRNA to knock down BIM.
An oncogenic Ras was introduced into young cells (within 1 month of continuous culture) of IMR90 cells to induce senescent cells (OIS). In the young cells and the senescent cells of IMR90, HIF-2α alone or both HIF-2α and BIM were knocked down by using their respective specific siRNAs (SEQ ID NO: 9, SEQ ID NO: 10), and cell death was confirmed (FIG. 28).
The latter information consists of 12,655 ChIP datasets from 903 antigens (transcription factors and epigenetic regulators).

Chk1 kinase [2] = experiment: S280 phosphorylation of Chk1 kinase after RSK1 knockdown in senescent IMR90 cells; assay type: cell-based, human; conditions: Ras-induced senescent IMR90 cells; RSK1 knockdown by siRNA
PGAM-Chk1 binding [3] = molecular target: T1, PGAM-Chk1 binding (Homo sapiens, UniProt O14757+P18669); experiment: PGAM-Chk1 binding by anti-Chk1 immunoprecipitation and anti-PGAM Western blotting in Ras-induced senescent IMR90 cells; assay type: cell-based
T1 construct: endogenous in cells; host or cells: IMR90 human primary fibroblasts made senescent by retroviral oncogenic Ras
T1 sequence (P18669 2-254 limits assumed): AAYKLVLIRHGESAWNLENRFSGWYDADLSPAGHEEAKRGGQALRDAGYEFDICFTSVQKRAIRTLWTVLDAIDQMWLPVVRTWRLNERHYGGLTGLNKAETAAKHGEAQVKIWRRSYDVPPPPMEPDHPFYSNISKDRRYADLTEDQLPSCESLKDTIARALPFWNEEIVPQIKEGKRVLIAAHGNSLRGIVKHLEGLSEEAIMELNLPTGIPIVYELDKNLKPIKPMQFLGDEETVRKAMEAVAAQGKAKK
T1 sequence (O14757 1-476): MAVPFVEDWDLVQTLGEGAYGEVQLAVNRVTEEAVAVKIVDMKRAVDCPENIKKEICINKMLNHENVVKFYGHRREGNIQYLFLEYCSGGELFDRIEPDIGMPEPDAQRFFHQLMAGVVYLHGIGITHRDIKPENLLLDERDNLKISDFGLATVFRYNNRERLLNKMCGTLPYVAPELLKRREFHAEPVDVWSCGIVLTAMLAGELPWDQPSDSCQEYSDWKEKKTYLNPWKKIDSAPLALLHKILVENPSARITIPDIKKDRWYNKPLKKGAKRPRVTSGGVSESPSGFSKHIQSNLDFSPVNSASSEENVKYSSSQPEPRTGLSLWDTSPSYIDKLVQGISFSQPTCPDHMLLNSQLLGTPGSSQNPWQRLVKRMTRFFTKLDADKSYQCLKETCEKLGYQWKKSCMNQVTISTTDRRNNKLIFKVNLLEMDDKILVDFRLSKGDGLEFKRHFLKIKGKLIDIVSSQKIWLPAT
Experimental: Human primary fibroblasts, IMR90 cells, were obtained from the JCRB Cell Bank. An oncogenic Ras mutation was retrovirally introduced into young cells (within 1 month of continuous culture) of the IMR90 cells to induce cellular senescence. […] After that, these cells were treated with MG132 for 6 hours, and cell lysates were prepared. The obtained cell lysates were immunoprecipitated with an anti-Chk1 antibody. The resulting immunoprecipitate was used for Western blotting with an anti-PGAM antibody to evaluate PGAM-Chk1 binding.
Next, in the same manner as above, IMR90 cells were used to prepare stress-induced senescent cells by introducing an oncogenic mutated Ras gene. The senescent cells were transfected with an RSK1 siRNA (SEQ ID NO: 7) or a control to knock down RSK1. The resulting cells were collected, and proteins were extracted. The resulting protein extract was immunoprecipitated with an anti-Chk1 antibody. The resulting immunoprecipitate was used for Western blotting with an anti-PGAM antibody to evaluate PGAM-Chk1 binding.

BIM gene = BIM gene expression in Ras-induced senescent IMR90 cells; assay type: cell-based, human; conditions: senescent (OIS) IMR90 cells; HIF-2α knockdown by siRNA
Experimental: An oncogenic Ras was introduced into young cells (within 1 month of continuous culture) of IMR90 cells to induce senescent cells (OIS).
An oncogenic Ras was introduced into young cells (within 1 month of continuous culture) of IMR90 cells to induce senescent cells (OIS). The senescent cells were transfected with an HIF-2α-specific siRNA (SEQ ID NO: 9) to knock down HIF-2α. After that, the expression of the BIM gene, which is an apoptosis-inducing gene, was analyzed (FIG. 26).

glycolytic metabolism = experiment: Glycolytic metabolism (glucose consumption, lactate production) in etoposide-induced senescent IMR90 cells; assay type: cell-based, human; conditions: 20 μM or 40 μM for 48 hours
Experimental: Next, young cells (within 1 month of continuous culture) of the IMR90 cells were treated with 100 μM etoposide for 48 hours to acquire senescent cells. […] After the nutlin treatment, the medium was collected, and glucose consumption was evaluated and lactate production was measured. The lactate level is calculated as a value (μmol/mg/h) obtained by measuring the amount of lactate secreted into the medium per hour (μmol/h) and correcting the same by the total cell protein (mg) and is expressed as a value relative to the actual value on day 0. The glucose consumption is calculated as a value (μmol/mg/h) obtained by measuring the amount of glucose decreased from the medium per hour (μmol/h) and correcting the same by the total cell protein (mg) and is expressed as a value relative to the actual value on day 0. Glucose and lactate were measured by using a Glucose assay kit (BioVision) (upper diagram in FIG. 8) and a Lactate assay kit (BioVision) (lower diagram in FIG. 8), respectively.

PGAM-Chk1 binding [4] = molecular target: T2, PGAM-Chk1 binding (Homo sapiens, UniProt O14757+P18669); experiment: Nano-Bit PGAM-Chk1 binding in cancer cell line H1299; assay type: cell-based; conditions: H1299 cells; 40 μM for 12, 24, and 48 hours
T2 construct: expressed in transfected cells
Source text: PGAM and Chk1 kinase genes tagged with Nano-Bit tags were introduced into the cancer cell line H1299 to prepare a cell line capable of stable expression. […] The treated cells were used to measure intracellular luciferase luminescence signals by Nano-Bit for each.
T2 sequence (P18669 whole entry, one chain of several): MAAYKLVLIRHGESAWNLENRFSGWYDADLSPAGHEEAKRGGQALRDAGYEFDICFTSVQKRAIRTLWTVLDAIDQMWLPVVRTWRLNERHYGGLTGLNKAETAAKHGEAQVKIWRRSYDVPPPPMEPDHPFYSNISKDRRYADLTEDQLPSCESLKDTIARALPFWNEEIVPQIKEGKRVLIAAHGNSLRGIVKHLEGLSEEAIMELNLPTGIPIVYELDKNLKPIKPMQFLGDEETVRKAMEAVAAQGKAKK

p53 = p53 activation (Western blot of p53 and p21) in young IMR90 cells; assay type: cell-based, human; conditions: 20 μM for 48 hours
Source text: After the treatment, proteins were extracted from the cells to carry out Western blotted.

Molecule: N#CC(=C(/N)Sc1ccccc1N)/C(C#N)=C(/N)Sc1ccccc1N [U126]
- S280 phosphorylation of Chk1 kinase (Chk1 kinase [1]): suppressed
- protein level of Chk1 kinase (Chk1 kinase [1]): not changed
- PGAM-Chk1 kinase binding (PGAM-Chk1 kinase binding): inhibited
- glycolytic metabolism (PGAM-Chk1 kinase binding): decreased

Molecule: CC1(C)CCC(c2ccc(Cl)cc2)=C(CN2CCN(c3ccc(C(=O)NS(=O)(=O)c4ccc(N[C@H](CCN5CCOCC5)CSc5ccccc5)c(S(=O)(=O)C(F)(F)F)c4)cc3)CC2)C1 [ABT263]
- aging-relevant dysfunctions and artherosclerosis (mice models): alleviated

Molecule: RSK1 siRNA #1: RSK1 siRNA including the sequence of SEQ ID NO: 7 (CACUGAUUCUGAAGGCGAA; listed as RNA, chemistry not given here)
- senolysis phenomenon with knockdown of RSK1 (IMR90 cells; young and Ras-induced senescent IMR90 cells, siRNA transfection): young cells are normal, but senescent cells selectively die
- S280 phosphorylation of Chk1 kinase (Chk1 kinase [2]): decreased
- PGAM-Chk1 binding (PGAM-Chk1 binding [3]; RSK1 knockdown by siRNA): inhibition of PGAM-Chk1

Molecule: HIF-2α-specific siRNA (SEQ ID NO: 9): HIF-2α-specific siRNA, SEQ ID NO: 9 (CACCUACUGUGAUGACAGA; listed as RNA, chemistry not given here)
- cell death after HIF-2α knockdown (IMR90 cells; young and Ras-induced senescent (OIS) IMR90 cells, siRNA transfection): selective cell death (senolysis)
- expression of the apoptosis-inducing gene BIM (BIM gene): increased

Molecule: COc1ccc(C2=N[C@@H](c3ccc(Cl)cc3)[C@@H](c3ccc(Cl)cc3)N2C(=O)N2CCNC(=O)C2)c(OC(C)C)c1 [nutlin 3a]
- cell death observed under a microscope (IMR90 cells; young and Ras-induced senescent IMR90 cells, 40 μM for 72 hours): cell death and cell number decrease were observed in both the young cells and the senescent cells
- glucose consumption (glycolytic metabolism): suppressed in a dose-dependent manner
- lactate production (glycolytic metabolism): suppressed in a dose-dependent manner
- PGAM-Chk1 binding (interaction) (PGAM-Chk1 binding [3]; 20 μM or 40 μM for 48 hours, then MG132 6 hours): inhibit PGAM-Chk1 interaction to the same extent
- luciferase luminescence signal by Nano-Bit (PGAM-Chk1 binding) (PGAM-Chk1 binding [4]): treatment time-dependent decrease
- protein level of p21 (p53): markedly increased
- protein level of p53 (p53): markedly increased
